Data: patent US8729089B2 (Gilead Sciences, Inc., priority 2006, dated 2014)

Columns and labels:
[1] = system: HCV replicon in human hepatoma Huh-7 cell line; experiment: Anti-HCV replicon assay (EC50, luciferase); type: cell-based; conditions: Hepatitis C virus, Huh-7, 72 h
How it was run: (§1)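 Huh-7 cells carrying an HCV replicon (6000/well) exposed to 3-fold serial compound dilutions for 3 days at 37 °C, final DMSO 0.5% where used. EC50 read as replicon luciferase luminescence after cell lysis; CC50 from CellTiter-Glo luminescence after 10 min at room temperature.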

[2] = CC50 assay (CellTiter-Glo) in Huh-7 HCV replicon cells; type: cell-based, human; conditions: human, 3 days incubation, CellTiter-Glo readout
How it was run: as §1

With `CCOP(=O)(CCNc1nc(NCC(F)(F)F)c2nc(-c3ccc(F)cc3)ccc2n1)OCC` [Example 256, {2-[6-(4-Fluoro-phenyl)-4-(2,2,2-trifluoro-ethylamino)-pyrido[3,2-d]pyrimidin-2-ylamino]-ethyl}-phosphonic acid diethyl ester] the EC50 [1] was < 0.1 µM and the CC50 at 3 days [2] was 5 to 25 µM.
In the case of `Fc1ccc(-c2ccc3nc(NCCN4CCOCC4)nc(NCC(F)(F)F)c3n2)cc1` [Example 258, 6-(4-Fluoro-phenyl)-N2-(2-morpholin-4-yl-ethyl)-N4-(2,2,2-trifluoro-ethyl)-pyrido[3,2-d]pyrimidine-2,4-diamine], the EC50 [1] is reported as < 0.1 µM and the CC50 at 3 days [2] is reported as < 5 µM.
For `NS(=O)(=O)CCNc1nc(NCC(F)(F)F)c2nc(-c3ccc(F)cc3)ccc2n1` [Example 259, 2-[6-(4-Fluoro-phenyl)-4-(2,2,2-trifluoro-ethylamino)-pyrido[3,2-d]pyrimidin-2-ylamino]-ethanesulfonic acid amide], the EC50 [1] was < 0.1 µM and the CC50 at 3 days [2] was 5 to 25 µM.
With `NC(=O)CCNc1nc(NCC(F)(F)F)c2nc(-c3ccc(F)cc3)ccc2n1` [Example 260, 3-[6-(4-Fluoro-phenyl)-4-(2,2,2-trifluoro-ethylamino)-pyrido[3,2-d]pyrimidin-2-ylamino]-propionamide] the EC50 [1] was < 0.1 µM and the CC50 at 3 days [2] was 5 to 25 µM.
In the case of `NC(=O)c1ccc(CNc2nc(NCC(F)(F)F)c3nc(-c4ccc(F)cc4)ccc3n2)cc1` [Example 261, 4-{[6-(4-Fluoro-phenyl)-4-(2,2,2-trifluoro-ethylamino)-pyrido[3,2-d]pyrimidin-2-ylamino]-methyl}-benzamide], the EC50 [1] is reported as < 0.1 µM and the CC50 at 3 days [2] is reported as < 5 µM.
For `CCOc1nc(NCc2ccc(C(=O)N(C)C)cc2)nc2ccc(-c3ccc(F)cc3)nc12` [Example 262, 4-{[4-Ethoxy-6-(4-fluoro-phenyl)-pyrido[3,2-d]pyrimidin-2-ylamino]-methyl}-N,N-dimethyl-benzamide], the EC50 [1] was < 0.1 µM and the CC50 at 3 days [2] was > 25 µM.
For `CCOc1nc(NCc2cccnc2)nc2ccc(-c3ccc(F)cc3)nc12` [Example 263, [4-Ethoxy-6-(4-fluoro-phenyl)-pyrido[3,2-d]pyrimidin-2-yl]-pyridin-3-ylmethyl-amine], the EC50 [1] was < 0.1 µM and the CC50 at 3 days [2] was > 25 µM.
In the case of `CCOc1nc(NCCOC)nc2ccc(-c3ccc(F)cc3)nc12` [Example 264, [4-Ethoxy-6-(4-fluoro-phenyl)-pyrido[3,2-d]pyrimidin-2-yl]-(2-methoxy-ethyl)-amine], the EC50 [1] is reported as < 0.1 µM and the CC50 at 3 days [2] is reported as > 25 µM.
In the case of `CCOc1nc(NCCS(N)(=O)=O)nc2ccc(-c3ccc(F)cc3)nc12` [Example 265, 2-[4-Ethoxy-6-(4-fluoro-phenyl)-pyrido[3,2-d]pyrimidin-2-ylamino]-ethanesulfonic acid amide], the EC50 [1] is reported as < 0.1 µM and the CC50 at 3 days [2] is reported as 5 to 25 µM.
For `CCOc1nc(NCc2ncco2)nc2ccc(-c3ccc(F)cc3)nc12` [Example 266, [4-Ethoxy-6-(4-fluoro-phenyl)-pyrido[3,2-d]pyrimidin-2-yl]-oxazol-2-ylmethyl-amine], the EC50 [1] was < 0.1 µM and the CC50 at 3 days [2] was > 25 µM.
With `CCOc1nc(NCc2ccc(-n3cncn3)cc2)nc2ccc(-c3ccc(F)cc3)nc12` [Example 267, [4-Ethoxy-6-(4-fluoro-phenyl)-pyrido[3,2-d]pyrimidin-2-yl]-(4-[1,2,4]triazol-1-yl-benzyl)-amine] the EC50 [1] was < 0.1 µM and the CC50 at 3 days [2] was > 25 µM.
For `CCOc1nc(NCc2ccc(C(N)=O)cc2)nc2ccc(-c3ccc(F)cc3)nc12` [Example 268, 4-{[4-Ethoxy-6-(4-fluoro-phenyl)-pyrido[3,2-d]pyrimidin-2-ylamino]-methyl}-benzamide], the EC50 [1] was < 0.1 µM and the CC50 at 3 days [2] was 5 to 25 µM.
For `CCOc1nc(NCc2ccc(CS(=O)(=O)NC)cc2)nc2ccc(-c3ccc(F)cc3)nc12` [Example 269, C-(4-{[4-Ethoxy-6-(4-fluoro-phenyl)-pyrido[3,2-d]pyrimidin-2-ylamino]-methyl}-phenyl)-N-methyl-methanesulfonamide], the EC50 [1] was < 0.1 µM and the CC50 at 3 days [2] was 5 to 25 µM.
For `CCOc1nc(NCc2ccc(CS(N)(=O)=O)cc2)nc2ccc(-c3ccc(F)cc3)nc12` [Example 270], the EC50 [1] was < 0.1 µM and the CC50 at 3 days [2] was 5 to 25 µM.
